Measured values as given in PMC9518264, “Design and synthesis of novel quinazolinone-based derivatives as EGFR inhibitors with antitumor activity” (Journal of Enzyme Inhibition and Medicinal Chemistry, 2022).

Key:
CCRF-CEM = test: cells; assay type: cell-based; details: Homo sapiens, read-out: growth inhibition % (GI%)
K-562 = test: cells; assay type: cell-based; details: Homo sapiens, K562, read-out: growth inhibition % (GI%)
RPMI-8226 = test: cells; assay type: cell-based; details: Homo sapiens, RPMI-8226, read-out: growth inhibition % (GI%)
SR = test: cells; assay type: cell-based; details: Homo sapiens, read-out: growth inhibition % (GI%)
EKVX = test: cells; assay type: cell-based; details: Homo sapiens, read-out: growth inhibition % (GI%)
HOP-62 = test: cells; assay type: cell-based; details: Homo sapiens, HOP-62, read-out: growth inhibition % (GI%)
HOP-92 = test: cells; assay type: cell-based; details: Homo sapiens, HOP-92, read-out: growth inhibition % (GI%)
NCI-H226 = test: cells; assay type: cell-based; details: Homo sapiens, NCI-H226, read-out: growth inhibition % (GI%)
NCI-H322M = test: cells; assay type: cell-based; details: Homo sapiens, read-out: growth inhibition % (GI%)
NCI-H460 = test: cells; assay type: cell-based; details: Homo sapiens, NCI-H460, read-out: growth inhibition % (GI%)
NCI-H522 = test: cells; assay type: cell-based; details: Homo sapiens, NCI-H522, read-out: growth inhibition % (GI%)
COLO-205 = test: cells; assay type: cell-based; details: Homo sapiens, COLO 205, read-out: growth inhibition % (GI%)
HCC-2998 = test: cells; assay type: cell-based; details: Homo sapiens, HCC 2998, read-out: growth inhibition % (GI%)
HCT-116 = test: cells; assay type: cell-based; details: Homo sapiens, HCT-116, read-out: growth inhibition % (GI%)
HT29 = test: cells; assay type: cell-based; details: Homo sapiens, HT-29, read-out: growth inhibition % (GI%)
SW-620 = test: cells; assay type: cell-based; details: Homo sapiens, SW-620, read-out: growth inhibition % (GI%)
SF-268 = test: cells; assay type: cell-based; details: Homo sapiens, SF-268, read-out: growth inhibition % (GI%)
SF-539 = test: cells; assay type: cell-based; details: Homo sapiens, SF-539, read-out: growth inhibition % (GI%)
SNB-19 = test: cells; assay type: cell-based; details: Homo sapiens, SNB-19, read-out: growth inhibition % (GI%)
SNB-75 = test: cells; assay type: cell-based; details: Homo sapiens, SNB-75, read-out: growth inhibition % (GI%)
LOX IMIV = test: cells; assay type: cell-based; details: Homo sapiens, 60 cell, read-out: growth inhibition % (GI%)
MDA-MB-435 = test: cells; assay type: cell-based; details: Homo sapiens, MDA-MB-435, read-out: growth inhibition % (GI%)
SK-MEL-2 = test: cells; assay type: cell-based; details: Homo sapiens, SK-MEL-2, read-out: growth inhibition % (GI%)
SK-MEL-28 = test: cells; assay type: cell-based; details: Homo sapiens, SK-MEL-28, read-out: growth inhibition % (GI%)
SK-MEL-5 = test: cells; assay type: cell-based; details: Homo sapiens, SK-MEL-5, read-out: growth inhibition % (GI%)
UACC-257 = test: cells; assay type: cell-based; details: Homo sapiens, UACC-257, read-out: growth inhibition % (GI%)
UACC-62 = test: cells; assay type: cell-based; details: Homo sapiens, UACC-62, read-out: growth inhibition % (GI%)
IGROV1 = test: cells; assay type: cell-based; details: Homo sapiens, IGROV-1, read-out: growth inhibition % (GI%)
OVCAR-4 = test: cells; assay type: cell-based; details: Homo sapiens, OVCAR-4, read-out: growth inhibition % (GI%)
OVCAR-5 = test: cells; assay type: cell-based; details: Homo sapiens, OVCAR-5, read-out: growth inhibition % (GI%)
OVCAR-8 = test: cells; assay type: cell-based; details: Homo sapiens, OVCAR-8, read-out: growth inhibition % (GI%)
NCI/ADR-RES = test: cells; assay type: cell-based; details: Homo sapiens, read-out: growth inhibition % (GI%)
SK-OV-3 = test: cells; assay type: cell-based; details: Homo sapiens, SK-OV-3, read-out: growth inhibition % (GI%)
786-0 = test: cells; assay type: cell-based; details: Homo sapiens, 786-0, read-out: growth inhibition % (GI%)
A498 = test: cells; assay type: cell-based; details: Homo sapiens, A498, read-out: growth inhibition % (GI%)
ACHN = test: cells; assay type: cell-based; details: Homo sapiens, read-out: growth inhibition % (GI%)
SN12C = test: cells; assay type: cell-based; details: Homo sapiens, read-out: growth inhibition % (GI%)
TK-10 = test: cells; assay type: cell-based; details: Homo sapiens, TK-10, read-out: growth inhibition % (GI%)
UO-31 = test: cells; assay type: cell-based; details: Homo sapiens, UO-31, read-out: growth inhibition % (GI%)
PC-3 = test: cells; assay type: cell-based; details: Homo sapiens, PC-3, read-out: growth inhibition % (GI%)
MDA-MB-231/ATCC = test: NCI 60 cell line antiproliferative screening (SRB), Breast cancer; assay type: cell-based; details: Homo sapiens, MDA-MB-231, read-out: growth inhibition % (GI%)
BT-549 = test: cells; assay type: cell-based; details: Homo sapiens, BT-549, read-out: growth inhibition % (GI%)
T-47D = test: cells; assay type: cell-based; details: Homo sapiens, T47D, read-out: growth inhibition % (GI%)
[1] = tested on: panel of 60 tumour cell lines; test: NCI 60 cell line antiproliferative screening (SRB), whole panel or subpanels (means, ranges, words); assay type: cell-based, human; details: 10 μM; for GI% range over a subset of cell lines: subset of cell lines whose number is stated in the sentence; for inhibition at 10 µM: Homo sapiens, 60 cell, mean over the cell line panel, read-out: Mean growth inhibition % (mean GI%)
MDA-MB-468 = test: NCI 60 cell line antiproliferative screening (SRB), Breast cancer; details: Homo sapiens, MDA-MB-468, read-out: growth inhibition % (GI%)
OVCAR-3 = test: NCI 60 cell line antiproliferative screening (SRB), Ovarian cancer; details: Homo sapiens, OVCAR-3, read-out: growth inhibition % (GI%)

O=C(CSc1nc2ccccc2c(=O)n1-c1ccccc1)NN=Cc1ccc(Oc2ccc(Cl)cc2)cc1 [6a, N'-(4–(4-chlorophenoxy)benzylidene)-2-((4-oxo-3-phenyl-3,4-dihydroquinazolin-2-yl)thio)acetohydrazide]
inhibition at 10 µM (CCRF-CEM): 49.6%
inhibition at 10 µM (K-562): 38.8%
inhibition at 10 µM (RPMI-8226): 26.8%
inhibition at 10 µM (SR): 29.7%
inhibition at 10 µM (EKVX): 41%
inhibition at 10 µM (HOP-62): 40.9%
inhibition at 10 µM (HOP-92): 33.3%
inhibition at 10 µM (NCI-H226): 27.9%
inhibition at 10 µM (NCI-H322M): 15.5%
inhibition at 10 µM (NCI-H460): 67.9%
inhibition at 10 µM (NCI-H522): 50.4%
inhibition at 10 µM (COLO-205): 50.8%
inhibition at 10 µM (HCC-2998): < 15%
inhibition at 10 µM (HCT-116): 94.4%
inhibition at 10 µM (HT29): 40.9%
inhibition at 10 µM (SW-620): 56.9%
inhibition at 10 µM (SF-268): < 15%
inhibition at 10 µM (SF-539): 31.5%
inhibition at 10 µM (SNB-19): 66.8%
inhibition at 10 µM (SNB-75): 39.9%
inhibition at 10 µM (LOX IMIV): 86%
inhibition at 10 µM (MDA-MB-435): 15.4%
inhibition at 10 µM (SK-MEL-2): 13.1%
inhibition at 10 µM (SK-MEL-28): 37.6%
inhibition at 10 µM (SK-MEL-5): 28.8%
inhibition at 10 µM (UACC-257): < 15%
inhibition at 10 µM (UACC-62): 33.4%
inhibition at 10 µM (IGROV1): 50.9%
inhibition at 10 µM (OVCAR-4): 26.2%
inhibition at 10 µM (OVCAR-5): 18.6%
inhibition at 10 µM (OVCAR-8): 40.8%
inhibition at 10 µM (NCI/ADR-RES): 47.3%
inhibition at 10 µM (SK-OV-3): 16.8%
inhibition at 10 µM (786-0): 46.8%
inhibition at 10 µM (A498): 34.3%
inhibition at 10 µM (ACHN): 25.5%
inhibition at 10 µM (SN12C): 73.1%
inhibition at 10 µM (TK-10): < 15%
inhibition at 10 µM (UO-31): 18.8%
inhibition at 10 µM (PC-3): 41.3%
inhibition at 10 µM (MDA-MB-231/ATCC): 50.8%
inhibition at 10 µM (BT-549): 30.1%
inhibition at 10 µM (T-47D): 17.5%
GI% range over a subset of cell lines [1]: 67.86% to 30.09
inhibition at 10 µM [1]: 37.3%
inhibition at 10 µM (MDA-MB-468): 28.4%
inhibition at 10 µM (OVCAR-3): < 15%

COc1ccc(Oc2ccc(C=NNC(=O)CSc3nc4ccccc4c(=O)n3-c3ccc(Cl)cc3)cc2)cc1 [6f, 2-((3–(4-chlorophenyl)-4-oxo-3,4-dihydroquinazolin-2-yl)thio)-N'-(4–(4-methoxyphenoxy)benzylidene)acetohydrazide]
inhibition at 10 µM (CCRF-CEM): 36.5%
inhibition at 10 µM (K-562): 41.6%
inhibition at 10 µM (RPMI-8226): 14.9%
inhibition at 10 µM (SR): 27.2%
inhibition at 10 µM (EKVX): 30.6%
inhibition at 10 µM (HOP-62): 26.7%
inhibition at 10 µM (HOP-92): 22.7%
inhibition at 10 µM (NCI-H226): 20.3%
inhibition at 10 µM (NCI-H322M): 15.3%
inhibition at 10 µM (NCI-H460): 88.8%
inhibition at 10 µM (NCI-H522): 48.7%
inhibition at 10 µM (COLO-205): 27.2%
inhibition at 10 µM (HCC-2998): 16.6%
inhibition at 10 µM (HCT-116): 86.7%
inhibition at 10 µM (HT29): 83.9%
inhibition at 10 µM (SW-620): 55.6%
inhibition at 10 µM (SF-268): 42.1%
inhibition at 10 µM (SF-539): 67.8%
inhibition at 10 µM (SNB-19): 38.5%
inhibition at 10 µM (SNB-75): 58.4%
inhibition at 10 µM (LOX IMIV): 85.3%
inhibition at 10 µM (MDA-MB-435): < 15%
inhibition at 10 µM (SK-MEL-2): < 15%
inhibition at 10 µM (SK-MEL-28): < 15%
inhibition at 10 µM (SK-MEL-5): 22%
inhibition at 10 µM (UACC-257): < 15%
inhibition at 10 µM (UACC-62): 38.1%
inhibition at 10 µM (IGROV1): 51.4%
inhibition at 10 µM (OVCAR-4): 27.4%
inhibition at 10 µM (OVCAR-5): 18.8%
inhibition at 10 µM (OVCAR-8): < 15%
inhibition at 10 µM (NCI/ADR-RES): 48.9%
inhibition at 10 µM (SK-OV-3): 33.7%
inhibition at 10 µM (786-0): 74.8%
inhibition at 10 µM (A498): 27.1%
inhibition at 10 µM (ACHN): 92.2%
inhibition at 10 µM (SN12C): 47.3%
inhibition at 10 µM (TK-10): < 15%
inhibition at 10 µM (UO-31): 52.3%
inhibition at 10 µM (PC-3): 36.3%
inhibition at 10 µM (MDA-MB-231/ATCC): 53.3%
inhibition at 10 µM (BT-549): < 15%
inhibition at 10 µM (T-47D): 62.1%
GI% range over a subset of cell lines [1]: 67.83 to 30.59%
inhibition at 10 µM [1]: 42.5%
inhibition at 10 µM (MDA-MB-468): 33.2%
inhibition at 10 µM (OVCAR-3): > 100%
